From US20140318000A1, “COMBINING ALGAE CULTIVATION AND CO2 CAPTURE” (Nederlandse Organisatie voor …, priority 2011, published 2014)
Entries after “also recorded” stand apart in the source; their conditions may differ.

Tests used:
Spirulina platensis = assay: Growth of Spirulina platensis (dry algae density) in growth medium combined with absorbent liquid loaded with CO2; type: cell-based
Procedure: For the absorbent liquids standard procedures were used to prepare the solvent solutions. For the absorbent liquids stock solutions with a molarity of 2 M were prepared. To test the growth, the molarities of the solutions were adjusted at the start of the experiments by adding a given amount of the aqueous growth medium.
The growth of the algae was tested with different solutions composed from different ratios (volume based) of growth media and absorbent liquid.
Subsequently, a number of dedicated experiments were performed were a specific algae (and growth medium) was combined with a given absorbent liquid in the presence of CO2. The CO2 was added in two different ways.
In the first way, so-called batch operation, the algae, growth medium, and the absorbent liquid (with a given molarity) were prepared in a beaker (of about 1 l) or reactor (available with a volume of 10 l and 20 l) and the CO2 was bubbled through for at least 12 h to saturate the solution with a high flow rate (in the order of 200 ml/min).
During the experiments the pH was measured on a daily basis.
At given times a small sample was taken from the beaker (or reactor) to analyse the micro-algae. The volume of the sample was determined, the sample was then dried in an oven, and subsequently the mass determined (by weighing) to obtain the dry algae density (g/l).
For various tests, Arthrospira (Spirulina) platensis was used. The Spirulina strain is kept in Schlösser's medium (Schlösser, Berichten der Deutchen Botanischen Gesellschaft 1982, 95, 181-276). Schlösser's medium contained per litre: 13.6 g of NaHCO3, 4.03 g of Na2CO3, 0.5 g of K2HPO4, 2.5 g of NaNO3, 1 g of K2SO4, 1 g of NaCl, 0.2 g of MgSO4.7H2O, 0.04 g of CaCl2.2H2O, 0.01 g of FeSO4.7H2O, and 0.08 g of EDTA (ethylenediaminetetraacetic). Some micronutrients are added as well.
The overall composition based on 1 l of total solution was obtained by combining: 400 ml of the growth medium, for example the Schlösser's medium, with 400 ml of an aqueous amino acids salts, with as ‘counter ion’ potassium hydroxide, solution, where the amount of amino acid was varied between 0.1 M and 1 M. Subsequently, 200 ml of algae solution was added.

[1] = CO2 uptake in absorbent liquid in a sealed beaker fed continuously with flue gas, online CO2 analyser; type: physicochemical; conditions: 0.2 M taurine, 4 l liquid, flue gas 7.2% CO2, total period 100 000 s
Procedure: CO2 is fed continuously to a sealed beaker with water and with an absorp absorbent liquid (0.2 M taurine). The height of the liquids is 30 cm the total amount of liquids is 4 l. For water the uptake, that is the amount of CO2, in %, leaving the beaker as function of the time, is given for two flow rates. […] In FIG. 4, the CO2 concentration, in %, leaving the beaker as function of time is depicted. Experiments were conducted in a sealed beaker, where flue gas was fed, and where the gaseous stream leaving the beaker was analysed with an online CO2 analyser. The composition of the ‘flue gas’ was 7.2% CO2 and […].

NCCS(=O)(=O)O [taurine, 2-aminoethanesulphonic acid]
dry algae density (Spirulina platensis; Spirulina platensis, 0.1 M taurine as absorbent liquid): about 2 g/l | dry algae density, initial constant level (Spirulina platensis; Spirulina platensis, 0.2 M taurine, solution saturated with CO2 at start, before reloading at day 20): about 1.4 g/l | final dry algae density (Spirulina platensis; Spirulina, 0.2 M taurine initially saturated with CO2, after about 15 days): 2.1 g/L | dry algae density after growth period (Spirulina platensis; Spirulina, 0.2 M taurine initially saturated with CO2, increase from 0.25 g/l in about 5 days after start-up): 1.7 g/L | CO2 leaving the beaker [1]: no CO2 was measured; also recorded: almost no CO2 is leaving the beaker
